Experimental data taken from PubChem BioAssay AID1918935 (Molecular Pharmacology Branch, DTP, NCI, 2023).

Test system: 324938-238-R-J1-PDC complex spheroid viability
Test: Anticancer human tumor 324938-238-R-J1-PDC patient-derived bladder carcinoma cell line growth inhibition
Details: for IC50: curve of first compound; for viability, T/C: stronger effect = lower value
Procedure, shortened: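 Multicellular complex spheroids of tumor cells with human endothelial cells (HUVEC) and mesenchymal stem cells; the LSD1 inhibitor iadademstat was combined with standard-of-care or investigational agents. Top concentration at or near clinical Cmax, half-log dilutions; final DMSO ≤0.25%.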

[1] = second compound 0.1 µM, first compound 0.00316 µM
[2] = second compound 0.1 µM, first compound 0.01 µM
[3] = second compound 0.1 µM, first compound 0.0316 µM
[4] = second compound 0.1 µM, first compound 0.1 µM
[5] = second compound 0.1 µM, first compound 0.316 µM
[6] = second compound 0.1 µM, first compound 1 µM
[7] = second compound 0.316 µM, first compound 0.00316 µM
[8] = second compound 0.316 µM, first compound 0.01 µM
[9] = second compound 0.316 µM, first compound 0.0316 µM
[10] = second compound 0.316 µM, first compound 0.1 µM
[11] = second compound 0.316 µM, first compound 0.316 µM
[12] = second compound 0.316 µM, first compound 1 µM
[13] = second compound 1 µM, first compound 0.00316 µM
[14] = second compound 1 µM, first compound 0.01 µM
[15] = second compound 1 µM, first compound 0.0316 µM
[16] = second compound 1 µM, first compound 0.1 µM
[17] = second compound 1 µM, first compound 0.316 µM
[18] = second compound 1 µM, first compound 1 µM
[19] = second compound 3.16 µM, first compound 0.00316 µM
[20] = second compound 3.16 µM, first compound 0.01 µM
[21] = second compound 3.16 µM, first compound 0.0316 µM
[22] = second compound 3.16 µM, first compound 0.1 µM
[23] = second compound 3.16 µM, first compound 0.316 µM
[24] = second compound 3.16 µM, first compound 1 µM
[25] = second compound 10 µM, first compound 0.00316 µM
[26] = second compound 10 µM, first compound 0.01 µM
[27] = second compound 10 µM, first compound 0.0316 µM
[28] = second compound 10 µM, first compound 0.1 µM
[29] = second compound 10 µM, first compound 0.316 µM
[30] = second compound 10 µM, first compound 1 µM
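Further: spheroids also contain HUVEC and human MSCs and agents combined with iadademstat; spheroids exposed to agents for 7 days before readout.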

With `CC1COCCN1c1cc(-c2ccnn2C)c2ccnc(-c3ccn[nH]3)c2n1` (stereo not given) + NC1CCC(NC2CC2c2ccccc2)CC1 the IC50 (second compound 0.1 µM) was 26 nM, the IC50 (second compound 0.316 µM) was 40.4 nM and the IC50 (second compound 1 µM) was 36.3 nM. For the same compound, the IC50 (second compound 3.16 µM) was 25.8 nM, the IC50 (second compound 10 µM) was 21.6 nM and the viability, T/C [1] was 88%. It also gave a viability, T/C [2] of 64.2%, a viability, T/C [3] of 49% and a viability, T/C [4] of 31.5%. It also gave a viability, T/C [5] of 17.3%, a viability, T/C [6] of 13.4% and a viability, T/C [7] of 76.9%. For the same compound, the viability, T/C [8] was 80.9%, the viability, T/C [9] was 52.5% and the viability, T/C [10] was 31.2%. It also gave a viability, T/C [11] of 17.4%, a viability, T/C [12] of 15.2% and a viability, T/C [13] of 80.8%. The viability, T/C [14] was 73.2%, the viability, T/C [15] was 51.8% and the viability, T/C [16] was 31.2%. The viability, T/C [17] was 18.7%, the viability, T/C [18] was 14.8% and the viability, T/C [19] was 72.8%. The viability, T/C [20] was 59.6%, the viability, T/C [21] was 49.7% and the viability, T/C [22] was 31.8%. It also gave a viability, T/C [23] of 19.9%, a viability, T/C [24] of 15.5% and a viability, T/C [25] of 72.3%. It also gave a viability, T/C [26] of 60.3%, a viability, T/C [27] of 44.7% and a viability, T/C [28] of 30.8%. For the same compound, the viability, T/C [29] was 20.1% and the viability, T/C [30] was 14.3%.
With `CC1COCCN1c1cc(C2(S(C)(=N)=O)CC2)nc(-c2ccnc3[nH]ccc23)n1` (stereo not given) + NC1CCC(NC2CC2c2ccccc2)CC1 the IC50 (second compound 0.1 µM) was 754 nM, the IC50 (second compound 0.316 µM) was 851 nM and the IC50 (second compound 1 µM) was 812 nM. It also gave an IC50 (second compound 3.16 µM) of 546 nM, an IC50 (second compound 10 µM) of 769 nM and a viability, T/C [3] of 91.8%. The viability, T/C [4] was 78.1%, the viability, T/C [5] was 62.9% and the viability, T/C [6] was 48.9%. The viability, T/C (second compound 0.1 µM, first compound 3.16 µM) was 24.5%, the viability, T/C (second compound 0.1 µM, first compound 10 µM) was 13.3% and the viability, T/C [9] was 93.9%. It also gave a viability, T/C [10] of 81.1%, a viability, T/C [11] of 72% and a viability, T/C [12] of 43.4%. The viability, T/C (second compound 0.316 µM, first compound 3.16 µM) was 30.4%, the viability, T/C (second compound 0.316 µM, first compound 10 µM) was 15.2% and the viability, T/C [15] was 73.1%. For the same compound, the viability, T/C [16] was 77.2%, the viability, T/C [17] was 68.8% and the viability, T/C [18] was 43.9%. For the same compound, the viability, T/C (second compound 1 µM, first compound 3.16 µM) was 28.5%, the viability, T/C (second compound 1 µM, first compound 10 µM) was 16.7% and the viability, T/C [21] was 68.8%. It also gave a viability, T/C [22] of 80%, a viability, T/C [23] of 57.6% and a viability, T/C [24] of 38.1%. It also gave a viability, T/C (second compound 3.16 µM, first compound 3.16 µM) of 25.9%, a viability, T/C (second compound 3.16 µM, first compound 10 µM) of 16.5% and a viability, T/C [27] of 77.8%. It also gave a viability, T/C [28] of 85.7%, a viability, T/C [29] of 66.2% and a viability, T/C [30] of 43.7%. It also gave a viability, T/C (second compound 10 µM, first compound 3.16 µM) of 28.2% and a viability, T/C (second compound 10 µM, first compound 10 µM) of 16.8%.
`Nc1ncn(C2CC(O)C(CO)S2)c(=O)n1` (stereo not given) + NC1CCC(NC2CC2c2ccccc2)CC1 gave an IC50 (second compound 0.1 µM) of 26.6 nM, an IC50 (second compound 0.316 µM) of 19.9 nM and an IC50 (second compound 1 µM) of 22.8 nM. It also gave an IC50 (second compound 3.16 µM) of 13.1 nM, an IC50 (second compound 10 µM) of 16.3 nM and a viability, T/C (second compound 0.1 µM, first compound 0.000949 µM) of 71.9%. The viability, T/C (second compound 0.1 µM, first compound 0.003 µM) was 73.7%, the viability, T/C (second compound 0.1 µM, first compound 0.00949 µM) was 62.8% and the viability, T/C (second compound 0.1 µM, first compound 0.03 µM) was 47.2%. The viability, T/C (second compound 0.1 µM, first compound 0.0949 µM) was 34.2%, the viability, T/C (second compound 0.1 µM, first compound 0.3 µM) was 22.8% and the viability, T/C (second compound 0.316 µM, first compound 0.000949 µM) was 74.1%. For the same compound, the viability, T/C (second compound 0.316 µM, first compound 0.003 µM) was 71.8%, the viability, T/C (second compound 0.316 µM, first compound 0.00949 µM) was 60.1% and the viability, T/C (second compound 0.316 µM, first compound 0.03 µM) was 43.9%. For the same compound, the viability, T/C (second compound 0.316 µM, first compound 0.0949 µM) was 30.6%, the viability, T/C (second compound 0.316 µM, first compound 0.3 µM) was 22.9% and the viability, T/C (second compound 1 µM, first compound 0.000949 µM) was 77.1%. The viability, T/C (second compound 1 µM, first compound 0.003 µM) was 64.8%, the viability, T/C (second compound 1 µM, first compound 0.00949 µM) was 58.3% and the viability, T/C (second compound 1 µM, first compound 0.03 µM) was 49.3%. It also gave a viability, T/C (second compound 1 µM, first compound 0.0949 µM) of 35.6%, a viability, T/C (second compound 1 µM, first compound 0.3 µM) of 23.8% and a viability, T/C (second compound 3.16 µM, first compound 0.000949 µM) of 70.6%. For the same compound, the viability, T/C (second compound 3.16 µM, first compound 0.003 µM) was 62.1%, the viability, T/C (second compound 3.16 µM, first compound 0.00949 µM) was 55.3% and the viability, T/C (second compound 3.16 µM, first compound 0.03 µM) was 39.2%. The viability, T/C (second compound 3.16 µM, first compound 0.0949 µM) was 32.7%, the viability, T/C (second compound 3.16 µM, first compound 0.3 µM) was 22.2% and the viability, T/C (second compound 10 µM, first compound 0.000949 µM) was 65.9%. For the same compound, the viability, T/C (second compound 10 µM, first compound 0.003 µM) was 64.3%, the viability, T/C (second compound 10 µM, first compound 0.00949 µM) was 51.3% and the viability, T/C (second compound 10 µM, first compound 0.03 µM) was 48.1%. It also gave a viability, T/C (second compound 10 µM, first compound 0.0949 µM) of 29.7% and a viability, T/C (second compound 10 µM, first compound 0.3 µM) of 22.3%.
`O=C(C=Cn1cnc(-c2cc(C(F)(F)F)cc(C(F)(F)F)c2)n1)NNc1cnccn1` + NC1CCC(NC2CC2c2ccccc2)CC1 showed an IC50 (second compound 0.1 µM) of 4.66 nM, an IC50 (second compound 0.316 µM) of under 3.16 nM and an IC50 (second compound 1 µM) of 5.06 nM. For the same compound, the IC50 (second compound 3.16 µM) was 4.22 nM, the IC50 (second compound 10 µM) was 4.01 nM and the viability, T/C [1] was 55.5%. It also gave a viability, T/C [2] of 39.2%, a viability, T/C [3] of 19.9% and a viability, T/C [4] of 10.1%. The viability, T/C [5] was 6.81%, the viability, T/C [6] was 3.54% and the viability, T/C [7] was 49.3%. For the same compound, the viability, T/C [8] was 37.7%, the viability, T/C [9] was 19.9% and the viability, T/C [10] was 9.54%. The viability, T/C [11] was 6.12%, the viability, T/C [12] was 3.24% and the viability, T/C [13] was 56.9%. It also gave a viability, T/C [14] of 40%, a viability, T/C [15] of 22.6% and a viability, T/C [16] of 11.8%. It also gave a viability, T/C [17] of 5.1%, a viability, T/C [18] of 3.42% and a viability, T/C [19] of 53.8%. The viability, T/C [20] was 38.8%, the viability, T/C [21] was 22.6% and the viability, T/C [22] was 12%. The viability, T/C [23] was 6.8%, the viability, T/C [24] was 4.08% and the viability, T/C [25] was 53.4%. The viability, T/C [26] was 37.1%, the viability, T/C [27] was 25.7% and the viability, T/C [28] was 15.3%. The viability, T/C [29] was 7.05% and the viability, T/C [30] was 4.89%.
